Measurements: patent US4065616A, “Processes for production of a 1-N-(α-hydroxy-.PHI.-amino alkanoyl)-3-deoxy-5-O-pentafuranosyl neamine and new compounds produced by the same processes” (Zaidan Hojin Biseibutsu Kagaku Kenkyu Kai, priority 1975, dated 1977)
Converted amounts (≈) assume the structure as drawn. Where two headings read alike, the source gives them in different places.

Tests used:
Bacillus subtilis B-558 = assay: M.I.C. by standard serial dilution method; format: cell-based; conditions: read-out: minimum inhibitory concentration (M.I.C.)
Protocol: (§1) These particular compounds, that is, 1-n-(α-hydroxy-ω-aminoalkanoyl)-3'-deoxy-5-O-pentofuranosylneamines according to the aforesaid general formula (I) have useful antibacterial activity against a wide variety of bacteria, including gram-negative bacteria and gram-positive bacteria. The minimum inhibitory concentration (M.I.C.) (mcg/ml) of these compounds against various organisms was determined by a standard serial dilution method at an incubation temperature of 37° C, the estimation being made after 18 hours incubation or each test organism, except that the incubation time was 48 hours for Mycobacterium smegmatis. The incubation medium used was nutrient agar.

[1] = test system: Escherichia coli K-12 JR66/W677; assay: M.I.C. by standard serial dilution method; format: cell-based; conditions: K12JR66/W677, 18 h, read-out: minimum inhibitory concentration (M.I.C.)
Protocol: as §1

[2] = test system: Escherichia coli K-12 LA 290 R55; assay: M.I.C. by standard serial dilution method; format: cell-based; conditions: K12LA290R55, 18 h, read-out: minimum inhibitory concentration (M.I.C.)
Protocol: as §1

[3] = test system: Escherichia coli K-12 LA 290 R56; assay: M.I.C. by standard serial dilution method; format: cell-based; conditions: K12LA290R56, 18 h, read-out: minimum inhibitory concentration (M.I.C.)
Protocol: as §1

[4] = test system: Escherichia coli K-12 LA 290 R64; assay: M.I.C. by standard serial dilution method; format: cell-based; conditions: K12LA290R64, 18 h, read-out: minimum inhibitory concentration (M.I.C.)
Protocol: as §1

[5] = test system: Escherichia coli K-12 ML 1410 R81; assay: M.I.C. by standard serial dilution method; format: cell-based; conditions: 18 h, read-out: minimum inhibitory concentration (M.I.C.)
Protocol: as §1

[6] = test system: Escherichia coli K-12 ML 1410; assay: M.I.C. by standard serial dilution method; format: cell-based; conditions: K12ML1410, E. coli K-12 ML 1410, nutrient agar, 37° C, 18 hours, read-out: minimum inhibitory concentration (M.I.C.)
Protocol: as §1

[7] = test system: Escherichia coli K-12 ML 1629; assay: M.I.C. by standard serial dilution method; format: cell-based; conditions: read-out: minimum inhibitory concentration (M.I.C.)
Protocol: as §1

[8] = test system: Escherichia coli K-12 ML 1630; assay: M.I.C. by standard serial dilution method; format: cell-based; conditions: K12ML1630, E. coli K-12 ML 1630, nutrient agar, 37° C, 18 hours, read-out: minimum inhibitory concentration (M.I.C.)
Protocol: as §1

[9] = test system: Escherichia coli K-12 W677; assay: M.I.C. by standard serial dilution method; format: cell-based; conditions: read-out: minimum inhibitory concentration (M.I.C.)
Protocol: as §1

Escherichia coli K-12 = assay: M.I.C. by standard serial dilution method; format: cell-based; conditions: read-out: minimum inhibitory concentration (M.I.C.)
Protocol: as §1

Escherichia coli NIHJ = assay: M.I.C. by standard serial dilution method; format: cell-based; conditions: read-out: minimum inhibitory concentration (M.I.C.)
Protocol: as §1

[10] = test system: Klebsiella pneumoniae PCI 602; assay: M.I.C. by standard serial dilution method; format: cell-based; conditions: read-out: minimum inhibitory concentration (M.I.C.)
Protocol: as §1

[11] = test system: Klebsiella pneumoniae Type 22, No. 3038; assay: M.I.C. by standard serial dilution method; format: cell-based; conditions: read-out: minimum inhibitory concentration (M.I.C.)
Protocol: as §1

[12] = test system: Mycobacterium smegmatis ATCC 607; assay: M.I.C. by standard serial dilution method; format: cell-based; conditions: Mycolicibacterium smegmatis, ATCC607, nutrient agar, 37° C, 48 hours, read-out: minimum inhibitory concentration (M.I.C.)
Protocol: as §1

Proteus rettgeri GN 311 = assay: M.I.C. by standard serial dilution method; format: cell-based; conditions: Providencia rettgeri, GN311, nutrient agar, 37° C, 18 hours, read-out: minimum inhibitory concentration (M.I.C.)
Protocol: as §1

Proteus rettgeri GN 466 = assay: M.I.C. by standard serial dilution method; format: cell-based; conditions: Providencia rettgeri, GN466; Proteus rettgeri GN 466; nutrient agar, 37° C, 18 hours; read-out: minimum inhibitory concentration (M.I.C.)
Protocol: as §1

[13] = test system: Pseudomonas aeruginosa 99; assay: M.I.C. by standard serial dilution method; format: cell-based; conditions: P. aeruginosa 99, nutrient agar, 37° C, 18 hours, read-out: minimum inhibitory concentration (M.I.C.)
Protocol: as §1

[14] = test system: Pseudomonas aeruginosa A3; assay: M.I.C. by standard serial dilution method; format: cell-based; conditions: P. aeruginosa A3, nutrient agar, 37° C, 18 hours, read-out: minimum inhibitory concentration (M.I.C.)
Protocol: as §1

[15] = test system: Pseudomonas aeruginosa GN 315; assay: M.I.C. by standard serial dilution method; format: cell-based; conditions: GN315, P. aeruginosa GN 315, nutrient agar, 37° C, 18 hours, read-out: minimum inhibitory concentration (M.I.C.)
Protocol: as §1

[16] = test system: Pseudomonas aeruginosa No. 12; assay: M.I.C. by standard serial dilution method; format: cell-based; conditions: P. aeruginosa No. 12, nutrient agar, 37° C, 18 hours, read-out: minimum inhibitory concentration (M.I.C.)
Protocol: as §1

[17] = test system: Pseudomonas aeruginosa TI-13; assay: M.I.C. by standard serial dilution method; format: cell-based; conditions: TI13, P. aeruginosa TI-13, nutrient agar, 37° C, 18 hours, read-out: minimum inhibitory concentration (M.I.C.)
Protocol: as §1

Salmonella typhosa T-63 = assay: M.I.C. by standard serial dilution method; format: cell-based; conditions: Salmonella enterica, 18 h, read-out: minimum inhibitory concentration (M.I.C.)
Protocol: as §1

Sarcina lutea PCl 1001 = assay: M.I.C. by standard serial dilution method; format: cell-based; conditions: Micrococcus luteus, PCL1001, nutrient agar, 37° C, 18 hours, read-out: minimum inhibitory concentration (M.I.C.)
Protocol: as §1

[18] = test system: Staphylococcus aureus FDA 209P; assay: M.I.C. by standard serial dilution method; format: cell-based; conditions: FDA209P, S. aureus FDA 209P, nutrient agar, 37° C, 18 hours, read-out: minimum inhibitory concentration (M.I.C.)
Protocol: as §1

[19] = test system: kanamycin-resistant bacteria; conditions: in words, prior work; cited from earlier work
[20] = clinical tests, in words; cited from earlier work
[21] = B558, B. subtilis B-558, nutrient agar, 37° C, 18 hours
[22] = K12ML1629, E. coli K-12 ML 1629, nutrient agar, 37° C, 18 hours
[23] = K12W677, E. coli K-12 W677, nutrient agar, 37° C, 18 hours
[24] = K12, E. coli K-12, nutrient agar, 37° C, 18 hours
[25] = E. coli NIHJ, nutrient agar, 37° C, 18 hours
[26] = PCI602, K. pneumoniae PCI 602, nutrient agar, 37° C, 18 hours
[27] = K. pneumoniae Type 22, No. 3038, nutrient agar, 37° C, 18 hours

SMILES	MIC (Bacillus subtilis B-558; [21]) [mg/L]	MIC [1] [mg/L]	MIC [2] [mg/L]	MIC [3] [mg/L]	MIC [4] [mg/L]	MIC [5] [mg/L]	MIC [6] [mg/L]	MIC [7, 22] [mg/L]	MIC [8] [mg/L]	MIC [12] [mg/L]	MIC (Proteus rettgeri GN 311) [mg/L]	MIC (Proteus rettgeri GN 466) [mg/L]	MIC [13] [mg/L]	MIC [14] [mg/L]	MIC [15] [mg/L]	MIC [16] [mg/L]	MIC [17] [mg/L]	MIC (Salmonella typhosa T-63) [mg/L]	MIC (Sarcina lutea PCl 1001) [mg/L]	MIC [18] [mg/L]	also measured
NCC[C@H](O)C(=O)N[C@@H]1C[C@H](N)[C@@H](O[C@H]2O[C@H](CN)[C@@H](O)C[C@H]2N)[C@H](O[C@@H]2O[C@H](CO)[C@H](O)[C@H]2O)[C@H]1O [compound 6, 1-N-((S)-4-amino-2-hydroxybutyryl)-3'-deoxy-5-O-β-D-xylofuranosylneamine]	0.2 (≈ 0.371 µM)	0.39 (≈ 0.723 µM)	0.78 (≈ 1.45 µM)	0.39 (≈ 0.723 µM)	0.2 (≈ 0.371 µM)	1.56 (≈ 2.89 µM)	1.56 (≈ 2.89 µM)	0.39 (≈ 0.723 µM)	0.78 (≈ 1.45 µM)	0.2 (≈ 0.371 µM)	3.12 (≈ 5.78 µM)	0.78 (≈ 1.45 µM)	12.5 (≈ 23.2 µM)	3.12 (≈ 5.78 µM)	> 100	25 (≈ 46.3 µM)	25 (≈ 46.3 µM)	0.78 (≈ 1.45 µM)	25 (≈ 46.3 µM)	0.39 (≈ 0.723 µM)	MIC [9, 23]: 0.39 mg/L (≈ 0.723 µM); MIC (Escherichia coli K-12; [24]): 0.39 mg/L (≈ 0.723 µM); MIC (Escherichia coli NIHJ; [25]): 0.78 mg/L (≈ 1.45 µM); MIC [10, 26]: 0.39 mg/L (≈ 0.723 µM); MIC [11, 27]: 0.39 mg/L (≈ 0.723 µM)
NCC(O)C(=O)N[C@@H]1C[C@H](N)[C@@H](O[C@H]2O[C@H](CN)[C@@H](O)C[C@H]2N)[C@H](O[C@@H]2O[C@H](CO)[C@H](O)[C@H]2O)[C@H]1O (stereo partly drawn) [Compound No. 1, 1N-((RS)-3-amino-2-hydroxypropionyl)-3'-deoxy-5-O-β-D-xylofuranosylneamine]	–	3.12 (≈ 5.94 µM)	3.12 (≈ 5.94 µM)	3.12 (≈ 5.94 µM)	1.56 (≈ 2.97 µM)	6.25 (≈ 11.9 µM)	3.12 (≈ 5.94 µM)	–	3.12 (≈ 5.94 µM)	0.39 (≈ 0.742 µM)	12.5 (≈ 23.8 µM)	3.12 (≈ 5.94 µM)	12.5 (≈ 23.8 µM)	6.25 (≈ 11.9 µM)	> 100	12.5 (≈ 23.8 µM)	25 (≈ 47.6 µM)	1.56 (≈ 2.97 µM)	25 (≈ 47.6 µM)	3.12 (≈ 5.94 µM)	MIC (Bacillus subtilis B-558; B558, 18 h): 1.56 mg/L (≈ 2.97 µM); MIC ([7]; K12ML1629, 18 h): 1.56 mg/L (≈ 2.97 µM); MIC ([9]; K12W677, 18 h): 1.56 mg/L (≈ 2.97 µM); MIC (Escherichia coli K-12; K12, 18 h): 1.56 mg/L (≈ 2.97 µM); MIC (Escherichia coli NIHJ; 18 h): 1.56 mg/L (≈ 2.97 µM); MIC ([10]; PCI602, 18 h): 1.56 mg/L (≈ 2.97 µM); MIC ([11]; 18 h): 1.56 mg/L (≈ 2.97 µM)
NCC[C@H](O)C(=O)N[C@@H]1C[C@H](N)[C@@H](O[C@H]2O[C@H](CN)[C@@H](O)C[C@H]2N)[C@H](O[C@@H]2O[C@H](CN)[C@H](O)[C@H]2O)[C@H]1O [compound 4, 1-N-((S)-4-amino-2-hydroxybutyryl)-5-O-(5-amino-5-deoxy-β-D-xylofuranosyl)-3'-doxyneamine]	0.2 (≈ 0.371 µM)	0.2 (≈ 0.371 µM)	0.39 (≈ 0.724 µM)	0.78 (≈ 1.45 µM)	0.39 (≈ 0.724 µM)	0.78 (≈ 1.45 µM)	0.78 (≈ 1.45 µM)	0.39 (≈ 0.724 µM)	0.78 (≈ 1.45 µM)	0.2 (≈ 0.371 µM)	3.12 (≈ 5.79 µM)	0.78 (≈ 1.45 µM)	3.12 (≈ 5.79 µM)	0.39 (≈ 0.724 µM)	> 100	3.12 (≈ 5.79 µM)	3.12 (≈ 5.79 µM)	0.2 (≈ 0.371 µM)	3.12 (≈ 5.79 µM)	0.39 (≈ 0.724 µM)	MIC [9, 23]: 0.39 mg/L (≈ 0.724 µM); MIC (Escherichia coli K-12; [24]): 0.2 mg/L (≈ 0.371 µM); MIC (Escherichia coli NIHJ; [25]): 0.2 mg/L (≈ 0.371 µM); MIC [10, 26]: 0.39 mg/L (≈ 0.724 µM); MIC [11, 27]: 0.39 mg/L (≈ 0.724 µM)
NC[C@@H]1CC[C@@H](N)[C@@H](O[C@H]2[C@H](O)[C@@H](O[C@H]3O[C@H](CO)[C@@H](O)[C@H](N)[C@H]3O)[C@H](N)C[C@@H]2N)O1 [DKB, 3',4'-dideoxykanamycin B]	–	–	–	–	–	–	–	–	–	–	–	–	–	–	–	–	–	–	–	–	antibacterial activity against resistant bacteria [19]: high antibacterial activity against the above-mentioned resistant bacteria; clinical usefulness [20]: very useful and effective semi-synthetic antibiotic in clinical tests
NCC[C@H](O)C(=O)N[C@@H]1C[C@H](N)[C@@H](O[C@H]2O[C@H](CN)[C@@H](O)C[C@H]2N)[C@H](O[C@@H]2O[C@@H](CO)[C@H](O)[C@H]2O)[C@H]1O [Compound No. 3, 1-N-((S)-4-amino-2-hydroxybutyryl)-3'-deoxy-5-O-α-L-arabinofuranosylneamine]	0.2 (≈ 0.371 µM)	1.56 (≈ 2.89 µM)	1.56 (≈ 2.89 µM)	0.39 (≈ 0.723 µM)	0.2 (≈ 0.371 µM)	1.56 (≈ 2.89 µM)	0.78 (≈ 1.45 µM)	0.39 (≈ 0.723 µM)	0.78 (≈ 1.45 µM)	0.2 (≈ 0.371 µM)	3.12 (≈ 5.78 µM)	0.78 (≈ 1.45 µM)	6.25 (≈ 11.6 µM)	0.78 (≈ 1.45 µM)	> 100	12.5 (≈ 23.2 µM)	25 (≈ 46.3 µM)	0.78 (≈ 1.45 µM)	25 (≈ 46.3 µM)	0.39 (≈ 0.723 µM)	MIC [9, 23]: 0.39 mg/L (≈ 0.723 µM); MIC (Escherichia coli K-12; [24]): 0.39 mg/L (≈ 0.723 µM); MIC (Escherichia coli NIHJ; [25]): 0.78 mg/L (≈ 1.45 µM); MIC [10, 26]: 0.39 mg/L (≈ 0.723 µM); MIC [11, 27]: 0.39 mg/L (≈ 0.723 µM)
